Source: PubChem BioAssay (NCI)
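Results reflect a 48-hour exposure of cells in 96-well plates to compound at five concentrations. TGI is the concentration that stops growth completely.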

What was measured:
Assay in all cases: growth of human tumour cells (NCI), 48 h
RXF 393 renal = test system: RXF 393 renal
OVCAR-5 ovarian = test system: OVCAR-5 ovarian
MDA-N = test system: MDA-N
SF-295 CNS = test system: SF-295 CNS
HCT-116 colon = test system: HCT-116 colon
NCI-H522 lung = test system: NCI-H522 lung
OVCAR-3 ovarian = test system: OVCAR-3 ovarian
MCF7 breast = test system: MCF7 breast
SR leukemia = test system: SR leukemia
M14 melanoma = test system: M14 melanoma
HL-60(TB) leukemia = test system: HL-60(TB) leukemia
EKVX NSCLC = test system: EKVX NSCLC
MALME-3M melanoma = test system: MALME-3M melanoma
IGROV1 ovarian = test system: IGROV1 ovarian
786-0 renal = test system: 786-0 renal
HT29 colon = test system: HT29 colon
RPMI-8226 leukemia = test system: RPMI-8226 leukemia
MDA-MB-231 breast = test system: MDA-MB-231 breast

Row | SMILES | TGI (RXF 393 renal) [µM] | TGI (OVCAR-5 ovarian) [µM] | TGI (MDA-N) [µM] | TGI (SF-295 CNS) [µM] | TGI (HCT-116 colon) [µM] | TGI (NCI-H522 lung) [µM] | TGI (OVCAR-3 ovarian) [µM] | TGI (MCF7 breast) [µM] | TGI (SR leukemia) [µM] | TGI (M14 melanoma) [µM] | TGI (HL-60(TB) leukemia) [µM] | TGI (EKVX NSCLC) [µM] | TGI (MALME-3M melanoma) [µM] | TGI (IGROV1 ovarian) [µM] | TGI (786-0 renal) [µM] | TGI (HT29 colon) [µM] | TGI (RPMI-8226 leukemia) [µM] | TGI (MDA-MB-231 breast) [µM]
1 | Oc1ccc2ccccc2c1-c1c(Nc2ccccc2)ccc2ccccc12 | 34.3 | > 50.1 | 20.5 | 30.5 | 33.5 | 29.6 | 22.7 | > 42.7 | 51.6 | 24.4 | 48.4 | 40 | 25 | 18.7 | 34.2 | > 53.5 | 47.6 | 28.1
2 | O=c1c2c(sc3ccccc13)NCN(CCc1ccccc1)C2 | > 100 | > 100 | 59.7 | 43.5 | > 100 | > 100 | > 100 | > 100 | > 100 | 84.4 | > 100 | > 100 | > 100 | > 100 | > 100 | 53.8 | 43 | 77.5
3 | COc1ccc(/C=C/C(=O)c2nc3ccccc3[nH]2)cc1 | 35.3 | > 71.7 | 32.9 | > 84.8 | 18.6 | 32.5 | 48.5 | > 81 | > 27.1 | > 59.1 | > 29.7 | 46 | 61.7 | 25.9 | 32.2 | 22.9 | > 29.8 | 48.9
